Data published in patent publication US8785614B2, “Aberrantly methylated genes in pancreatic cancer” (The Johns Hopkins University, priority 2003, dated 2014).
Read-outs that look alike come from different tables or passages of the source.

Test system: four pancreatic cancer cell lines (AsPC1, Hs766T, MiaPaCa2, Panc1)
Format: cell-based, human
Description: These include a large panel of novel targets for silencing by histone deacetylation including several known tumor suppressor genes or cell cycle-regulatory genes (ING1, p57KIP2, CHES1, CHFR, GADD45B, and others).

CC(/C=C/C(=O)NO)=C\[C@@H](C)C(=O)c1ccc(N(C)C)cc1 [TSA, trichostatin A]
changes in phenotypes during the treatment period: did not result in apparent changes in their phenotypes | Induced by TSA alone? (ANGPT2): No | Induced by TSA alone? (BARD1): No | Induced by TSA alone? (BIK): Yes | Induced by TSA alone? (BNIP3): Yes | Induced by TSA alone? (BNIP3 (Table 3)): Yes | Induced by TSA alone? (BST2): No | Induced by TSA alone? (BST2 (Table 3)): No | Induced by TSA alone? (CACNA1G): Yes | Induced by TSA alone? (CASP5): No | Induced by TSA alone? (CCNA1): No | Induced by TSA alone? (CCNE2): No | Induced by TSA alone? (CDC25A): No | Induced by TSA alone? (CDH3): No | Induced by TSA alone? (CDKN1A (p21)): No | Induced by TSA alone? (CDKN1C): Yes | Induced by TSA alone? (CDKN2A (p16)): No | Induced by TSA alone? (CLDN5): No | Induced by TSA alone? (CLDN7): No | Induced by TSA alone? (CRIP 1): Yes | Induced by TSA alone? (CRLF1): Yes | Induced by TSA alone? (CSF1): Yes | Induced by TSA alone? (CSF3): No | Induced by TSA alone? (Cdc42 effector protein 2): No | Induced by TSA alone? (DAPK2): No | Induced by TSA alone? (DAZL): Yes | Induced by TSA alone? (DEAD box RNA helicase (VASA)): No | Induced by TSA alone? (DR3): No | Induced by TSA alone? (FOXE1): No | Induced by TSA alone? (GAGE1): Yes | Induced by TSA alone? (GAGE2): Yes | Induced by TSA alone? (GAGE3): Yes | Induced by TSA alone? (GAGE4): Yes | Induced by TSA alone? (GAGE6): Yes | Induced by TSA alone? (GAGE7): Yes | Induced by TSA alone? (GAGE7B): Yes | Induced by TSA alone? (GAS1): No | Induced by TSA alone? (HOXA1): No | Induced by TSA alone? (HSPA1A): Yes | Induced by TSA alone? (IGF2): No | Induced by TSA alone? (IL1R1): No | Induced by TSA alone? (ISG20): No | Induced by TSA alone? (ITM3): Yes | Induced by TSA alone? (JPH3): No | Induced by TSA alone? (KLK10): No | Induced by TSA alone? (KRT17): No | Induced by TSA alone? (LDOC1): No | Induced by TSA alone? (LHX1): No | Induced by TSA alone? (LHX2): No | Induced by TSA alone? (LIPC): No | Induced by TSA alone? (MAGE1): Yes | Induced by TSA alone? (MAGEC1): Yes | Induced by TSA alone? (MATN1): Yes | Induced by TSA alone? (MLH1): Yes | Induced by TSA alone? (NEFH): Yes | Induced by TSA alone? (NK4): Yes | Induced by TSA alone? (NPTX2): Yes | Induced by TSA alone? (PAX6): No | Induced by TSA alone? (PAX6 (Table 3)): No | Induced by TSA alone? (PDYN): No | Induced by TSA alone? (PIG11 (Table 3)): No | Induced by TSA alone? (PLAT): No | Induced by TSA alone? (PLEK2): No | Induced by TSA alone? (PRG1): Yes | Induced by TSA alone? (S100A2): No | Induced by TSA alone? (S100P): No | Induced by TSA alone? (SALL1): No | Induced by TSA alone? (SARP2): No | Induced by TSA alone? (SARP2 (Table 3)): No | Induced by TSA alone? (SGCE): Yes | Induced by TSA alone? (SMARCA1): No | Induced by TSA alone? (SPANXC): Yes | Induced by TSA alone? (ST14): Yes | Induced by TSA alone? (STAT3): Yes | Induced by TSA alone? (TERT): No | Induced by TSA alone? (TIMP3): No | Induced by TSA alone? (TJP2): No | Induced by TSA alone? (TNF): No | number of the 11 genes with aberrantly methylated CpG islands whose expression was induced (TSA alone): 4 genes | Induced by TSA alone? (UCHL1): Yes | Induced by TSA alone? (UCHL1 (Table 3)): Yes | Induced by TSA alone? (WISP2): No | Induced by TSA alone? (WIT-1): No | Induced by TSA alone? (WNT7A): Yes | Induced by TSA alone? (XAGE-1): Yes | Induced by TSA alone? (XAGE-1 (Table 3)): Yes | Induced by TSA alone? (activity-regulated cytoskeleton-associated protein (APC)): Yes | Induced by TSA alone? (aik3): Yes | Induced by TSA alone? (basic fibroblast growth factor (FGF)): Yes | Induced by TSA alone? (cytovillin 2 (VIL2, ezrin)): No | Induced by TSA alone? (granulocytemacrophage colony-stimulating factor (M11734)): Yes | Induced by TSA alone? (interferon, alpha-inducible protein (NM_022873)): Yes | Induced by TSA alone? (junction adhesion molecule (AF154005)): Yes | Induced by TSA alone? (matrix metalloproteinase 8 (MMP3)): No | Induced by TSA alone? (nucleotide-binding site protein 1 (AF298547)): Yes | Induced by TSA alone? (p53-induced protein (PIGII)): No | Induced by TSA alone? (reprimo): No | Induced by TSA alone? (stratifin (14-3-3 sigma)): Yes | Induced by TSA alone? (stromal antigen 3 (STAG5)): Yes | Induced by TSA alone? (synovial sarcoma, X breakpoint 2 (AF257500)): Yes | Induced by TSA alone? (testin): Yes | Induced by TSA alone? (transketolase-like protein (X91817)): Yes
